Holding throughout (format): cell-based
For experiment [1], the system named is HCT116 cells. Put plainly: Cell proliferation PAD assay, HCT116. To be noted: Homo sapiens, 48 hours. From the text:
(§1) Table 3 illustrates the inhibitory activity of the compounds of the invention determined by the PAD assay described above in a number of cell types. Apoptosis was not
Cell lines used are available from American Type Culture Collection (ATCC), for example, cell cultures containing A549 (ATCC# CCL-185), HeLa (ATCC# CCL-2), HCT116 ATTC# CCL-247), and H1299 (ATCC# CRL-5803) cells were maintained in T175 flasks following the ATCC recommended media and handling procedures. […] A 20,000 cells/ml solution was made for plating. Cells were plated in black Packard 96 well plates by placing 100 μl per well (2,000 cells per well). […] The definitions of the cell types used are as follows: A549 is lung carcinoma; HI 299 is non-small cell lung carcinoma; HI 155 is non-small cell lung carcinoma; AsPC-1 is pancreatic adenocarcinoma; Caov-3 is ovarian adenocarcinoma; COLO 205 is colorectal adenocarcinoma; DLD-1 colorectal adenocarcinoma; HCT116 is colorectal carcinoma; DU 145 is prostate carcinoma; ES-2 is ovarian clear cell carcinoma; H460 is large cell lung carcinoma; HELA is cervical adenocarcinoma; MIA PaCa-2 is pancreatice carcinoma; OVCAR-3 is ovarian adenocarcinoma; OVCAR8 is ovarian carcinoma; PC3 is prostate adenocarcinoma; SK-OV-3 is ovarian adenocarcinoma; SU86.86 is pancreatic carcinoma; TOV-21G is avarian clear cell carcinoma; U2OS is bone osteosarcoma; is ASPC-I is pancreatic adenocarcinoma; BXPC-3 is pabcreatic adenocarcinoma; HL60 is promyeloblast promyelocytic leukemia; K562 is bone marrow chronic myelogenous leukemia; L1210 is mouse lymphocytic leukemia; MOLT3 is T lymphoblast acute lymphoblastic leukemia; MOLT4 is T lymphoblast acute lymphoblastic leukemia; SW620 is colorectal adenocarcinoma; THP-1 is monocyte acute monocytic leukemia; U937 is histiocytic lymphoma; and UACC-257 is melanoma.
Compounds and additional media were added 24 hours after cell plating. A compound master plate was created with concentrations 500 times greater than the final concentration added to the cells. All compound testing was done in duplicate using 6.3 fold dilutions starting with 10 mM. All outside wells (and 4 internal wells) were DMSO controls. Taxol and at least one additional control were run on all plates. Three microliters of the compound master plate were added to deep well blocks containing 750 μl of RPMI media. One hundred microliters were transferred from the compound/media deep well blocks to the plated cells resulting in a 500 fold dilution of the compounds. Cells were grown at 37° C., 5% CO2 for 48 hours.
Cells to be analyzed by photography were fixed and stained. One hundred microliters of media were removed and 100 μl of 9.3% formamide was added to each well. Plates were left on the benchtop for 45 minutes. A staining solution containing 1.55 μl of 1 mg/ml DAPI added to 18.75 ml PBS was warmed for 15 minutes at 37° C. The cells were aspirated prior to washing with 100 μl of PBS. Seventy microliters of PBS were aspirated and 170 μl of the DAPI solution were added to each well of fixed cells. Plates were left at room temperature for one hour then aspirated and washed twice with 100 μl of PBS. The stained cells were left at 4° C. for a minimum of 16 hours before photographic analysis with Array Scan II (Cellomics). Analysis of the photographic images to determine numbers of live cells (proliferation), apoptotic cells and dead cells, were according to the methods described in U.S. Utility patent application Ser. No. 10/652,440, which incorporated herein in its entirety.

Experiment [2] relates to MIA PaCa-2 cells. The experiment can be described thus: Cell proliferation PAD assay, MIA PaCa-2. The following applies: Homo sapiens, Miapaca2 cells, 9pt, 48 hours.
Source text: as §1
(§2) Cell lines used are available from American Type Culture Collection (ATCC), for example, cell cultures containing A549 (ATCC# CCL-185), HeLa (ATCC# CCL-2), HCT116 ATTC# CCL-247), and H1299 (ATCC# CRL-5803) cells were maintained in T175 flasks following the ATCC recommended media and handling procedures. […] A 20,000 cells/ml solution was made for plating. Cells were plated in black Packard 96 well plates by placing 100 μl per well (2,000 cells per well). […]
(§3) Cells to be analyzed by photography were fixed and stained. […]

Experiment [3] relates to COLO 205 cells. Put plainly: Cell proliferation PAD assay, COLO 205. The following applies: Homo sapiens, Colo205 cells, 9pt, 48 hours.
Source text: as §1, §2, §3

[4] abbreviates: HCT-116, 6pt, read-out: HCT116 6pt.

In patent US20050282818A1, “Ubiquitin ligase inhibitors” (Rigel Pharmaceuticals, Inc., priority 2004, published 2005) one finds IC50 data, which are given here for seven compounds.

Read-outs that look alike come from different tables or passages of the source.

Turning to `O=[N+]([O-])c1ccc(SCCO)c2nonc12` [compound 150, 2-[(7-nitro-2,1,3-benzoxadiazol-4-yl)thio]ethanol], in experiment [1] (setting [4]), the IC50 was under 1000 nM.

As to `COC(=O)c1ccc(NS(=O)(=O)c2c(Cl)ccc3nonc23)cc1` [compound 178, methyl 4-{[(5-chloro-2,1,3-benzoxadiazol-4-yl)sulfonyl]amino}benzoate], the IC50 in experiment [1] (setting [4]) was under 1000 nM.

For the compound `O=S(=O)(c1c(Cl)ccc2nonc12)N1CCN(c2ncc(C(F)(F)F)cc2Cl)CC1` [compound 179, 5-chloro-4-({4-[3-chloro-5-(trifluoromethyl)pyridin-2-yl]piperazin-1-yl}sulfonyl)-2,1,3-benzoxadiazole], the IC50 in experiment [1] (setting [4]) lay in the range of 1000 to 20000 nM.

Take `Cc1cccc(N2CCN(S(=O)(=O)c3c(Cl)ccc4nonc34)CC2)n1` [compound 202, 5-chloro-4-{[4-(6-methylpyridin-2-yl)piperazin-1-yl]sulfonyl}-2,1,3-benzoxadiazole]: the IC50 in experiment [1] (setting [4]) is under 1000 nM.

In the case of `O=S(=O)(Nc1ccc2cn[nH]c2c1)c1ccc(Cl)c2nonc12` [compound 220, 7-chloro-N-1 H-indazol-6-yl-2,1,3-benzoxadiazole-4-sulfonamide], the IC50 in experiment [1] (setting [4]) was 1000 to 20000 nM.

Consider `CC1(C)CCN(S(=O)(=O)c2c(Cl)ccc3nonc23)CC1` [compound 245, 5-chloro-4-[(4,4-dimethylpiperidin-1-yl)sulfonyl]-2,1,3-benzoxadiazole], for which the IC50 in experiment [2] was under 1000 nM; in experiment [3] it was under 1000 nM; in experiment [1] (HCT-116, 9pt, read-out: HCT116 9pt), under 1000 nM.

As to `Cc1cc(C)cc(-c2ccc([N+](=O)[O-])c3nonc23)c1` [compound 286, 4-(3,5-Dimethylphenyl)-7-nitro-2,1,3-benzoxadiazole], the IC50 in experiment [1] (setting [4]) was under 1000 nM.
